In one assay the target is T1, JAK2 (Homo sapiens, UniProt O60674).
T1 construct: endogenous in cells; host or cells: Mixed Molt4/Ramos lysate (1:2)
In words: Kinobeads assay, JAK2. In kind it is binding. To be noted: mixed Molt4/Ramos cell lysate, dot blot detection. The procedure, abridged: (§1)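 Competition pulldown: compound dilution series incubated 3 h in cold room with immobilized aminopyrido-pyrimidine beads and mixed Molt4/Ramos lysate (1:2, 10 mg/mL protein) in DP buffer pH 7.4 with NP40. Bead-bound JAK2/JAK3 eluted, quantified by antibody dot blot with infrared detection; IC50 from dose-response curves.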

The target in a further assay is T2, JAK3 (Homo sapiens, UniProt P52333).
T2 construct: endogenous in cells; host or cells: Mixed Molt4/Ramos lysate (1:2)
T2 sequence (P52333 1-1124): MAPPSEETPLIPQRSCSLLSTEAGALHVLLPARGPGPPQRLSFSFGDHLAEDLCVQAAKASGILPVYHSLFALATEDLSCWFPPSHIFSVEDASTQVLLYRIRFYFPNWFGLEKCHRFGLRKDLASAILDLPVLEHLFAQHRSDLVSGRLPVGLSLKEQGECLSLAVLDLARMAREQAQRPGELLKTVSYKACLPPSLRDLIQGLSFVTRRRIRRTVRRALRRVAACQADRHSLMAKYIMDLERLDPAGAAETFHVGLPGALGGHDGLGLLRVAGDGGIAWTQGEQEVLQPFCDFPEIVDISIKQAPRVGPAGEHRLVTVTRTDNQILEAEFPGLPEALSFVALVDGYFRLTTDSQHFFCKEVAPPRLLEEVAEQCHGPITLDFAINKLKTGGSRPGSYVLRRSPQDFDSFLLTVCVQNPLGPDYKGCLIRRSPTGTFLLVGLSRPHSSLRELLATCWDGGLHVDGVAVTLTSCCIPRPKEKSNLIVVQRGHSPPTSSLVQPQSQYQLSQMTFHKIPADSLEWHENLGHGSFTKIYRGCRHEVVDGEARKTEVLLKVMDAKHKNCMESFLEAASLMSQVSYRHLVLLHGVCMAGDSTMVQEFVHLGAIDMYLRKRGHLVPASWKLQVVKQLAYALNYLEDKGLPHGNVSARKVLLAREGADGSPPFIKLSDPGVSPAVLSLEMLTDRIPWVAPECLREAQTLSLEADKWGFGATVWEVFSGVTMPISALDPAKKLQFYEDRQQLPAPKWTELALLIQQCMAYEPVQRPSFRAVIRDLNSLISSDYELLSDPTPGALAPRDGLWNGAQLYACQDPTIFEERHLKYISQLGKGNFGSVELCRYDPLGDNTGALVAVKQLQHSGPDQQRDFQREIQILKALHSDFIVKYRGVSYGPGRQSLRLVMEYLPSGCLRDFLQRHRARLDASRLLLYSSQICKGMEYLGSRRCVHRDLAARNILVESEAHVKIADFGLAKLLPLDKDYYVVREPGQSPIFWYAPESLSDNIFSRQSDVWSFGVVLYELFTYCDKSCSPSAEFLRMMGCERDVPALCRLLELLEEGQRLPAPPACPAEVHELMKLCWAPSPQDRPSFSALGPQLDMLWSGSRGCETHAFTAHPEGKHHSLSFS
Nature of the assay: Kinobeads assay, JAK3. The conditions noted are these: mixed Molt4/Ramos cell lysate, dot blot detection. In kind it is binding. In short, it runs like this: as §1

T1 sequence (O60674 whole entry): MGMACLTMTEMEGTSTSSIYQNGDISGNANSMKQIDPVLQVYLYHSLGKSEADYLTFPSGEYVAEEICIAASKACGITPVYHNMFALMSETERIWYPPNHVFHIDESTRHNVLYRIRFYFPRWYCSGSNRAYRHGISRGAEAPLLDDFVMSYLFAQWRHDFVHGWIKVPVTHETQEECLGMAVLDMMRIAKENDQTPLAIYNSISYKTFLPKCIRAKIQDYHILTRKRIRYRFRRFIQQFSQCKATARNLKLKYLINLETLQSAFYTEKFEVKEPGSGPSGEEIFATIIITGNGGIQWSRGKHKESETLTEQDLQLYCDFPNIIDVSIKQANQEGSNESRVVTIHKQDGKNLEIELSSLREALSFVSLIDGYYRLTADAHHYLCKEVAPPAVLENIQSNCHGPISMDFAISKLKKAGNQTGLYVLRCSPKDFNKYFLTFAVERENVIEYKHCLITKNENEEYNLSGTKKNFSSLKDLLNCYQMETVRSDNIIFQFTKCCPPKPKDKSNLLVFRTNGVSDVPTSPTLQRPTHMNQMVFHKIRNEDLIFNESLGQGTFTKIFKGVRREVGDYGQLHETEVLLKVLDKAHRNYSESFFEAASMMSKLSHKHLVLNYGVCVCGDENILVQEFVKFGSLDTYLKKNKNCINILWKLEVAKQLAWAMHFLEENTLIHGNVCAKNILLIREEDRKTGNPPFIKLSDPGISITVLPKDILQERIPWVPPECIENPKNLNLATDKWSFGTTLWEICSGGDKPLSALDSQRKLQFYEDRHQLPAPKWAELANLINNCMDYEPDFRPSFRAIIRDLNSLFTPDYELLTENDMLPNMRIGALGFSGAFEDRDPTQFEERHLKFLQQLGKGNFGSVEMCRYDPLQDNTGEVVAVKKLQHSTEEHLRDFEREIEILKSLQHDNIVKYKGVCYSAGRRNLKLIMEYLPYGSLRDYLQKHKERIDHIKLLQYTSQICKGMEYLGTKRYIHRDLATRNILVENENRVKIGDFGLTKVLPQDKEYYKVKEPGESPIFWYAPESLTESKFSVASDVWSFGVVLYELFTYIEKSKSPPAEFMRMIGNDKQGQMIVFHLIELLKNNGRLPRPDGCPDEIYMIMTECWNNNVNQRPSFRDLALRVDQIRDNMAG

Turning to `OCCn1cc(Nc2ncc3cnn(Cc4c(F)c(F)cc(N5CCNCC5)c4F)c3n2)cn1` [Example 283, 2-(4-((1-(2,3,6-Trifluoro-5-(piperazin-1-yl)benzyl)-1H-pyrazolo[3,4-d]pyrimidin-6-yl)amino)-1H-pyrazol-1-yl)ethanol], the 50% inhibitory concentration (IC50) is 1000 to 10000 nM at JAK2 and under 100 nM against JAK3.
The matching figures for `CCCn1cc(Nc2ncc3cnn(Cc4ccccc4C#N)c3n2)c(C)n1` [Example 21, 2-((6-(3-Methyl-1-propyl-1H-pyrazol-4-ylamino)-1H-pyrazolo[3,4-d]pyrimidin-1-yl)methyl)benzonitrile]: at least 10000 nM and 100 to 1000 nM.
For the compound `CNS(=O)(=O)c1ccc(-n2ncc3cnc(Nc4cnn(C)c4)nc32)cc1` [Example 40, N-Methyl-4-(6-(1-methyl-1H-pyrazol-4-ylamino)-1H-pyrazolo[3,4-d]pyrimidin-1-yl)benzenesulfonamide], the IC50 against JAK2 fell in the range of 1000 to 10000 nM; against JAK3, 100 to 1000 nM.
The matching figures for `COCCOc1cccc(Cn2ncc3cnc(Nc4cnn(CCCN(C)C)c4)nc32)c1` [Example 184, N-(1-(3-(Dimethylamino)propyl)-1H-pyrazol-4-yl)-1-(3-(2-methoxyethoxy)benzyl)-1H-pyrazolo[3,4-d]pyrimidin-6-amine]: 1000 to 10000 nM and under 100 nM.
For `COCCn1cc(Nc2ncc3cnn(Cc4ccccc4F)c3n2)cn1` [Example 28, 1-(2-Fluorobenzyl)-N-(1-(2-methoxyethyl)-1H-pyrazol-4-yl)-1H-pyrazolo[3,4-d]pyrimidin-6-amine], in that order: 1000 to 10000 nM and under 100 nM.
The matching figures for `COc1ccccc1Cn1ncc2cnc(Nc3cnn(C)c3)nc21` [Example 87, 1-(2-Methoxybenzyl)-N-(1-methyl-1H-pyrazol-4-yl)-1H-pyrazolo[3,4-d]pyrimidin-6-amine]: 1000 to 10000 nM and under 100 nM.
Consider `CN(c1ccc(-n2ncc3cnc(Nc4cnn(C)c4)nc32)cc1)S(C)(=O)=O` [Example 17, N-Methyl-N-(4-(6-(1-methyl-1H-pyrazol-4-ylamino)-1H-pyrazolo[3,4-d]pyrimidin-1-yl)phenyl)methanesulfonamide], for which the IC50 at JAK2 and against JAK3 was 100 to 1000 nM each time.
On to `Cn1cc(Nc2ncc3cnn(Cc4ccc(F)cc4F)c3n2)cn1` [Example 47, 1-(2,4-Difluorobenzyl)-N-(1-methyl-1H-pyrazol-4-yl)-1H-pyrazolo[3,4-d]pyrimidin-6-amine], for which the concentration for half-maximal inhibition (IC50) against JAK2 lay within 1000 to 10000 nM; against JAK3, 100 to 1000 nM.
For `Cc1ccc(O)cc1Cn1ncc2cnc(Nc3cnn(C)c3)nc21` [Example 189], in that order: at least 10000 nM and 100 to 1000 nM.
Turning to `Cn1cnc(Nc2ncc3cnn(Cc4ccccc4F)c3n2)c1` [Example 237, 1-(2-Fluorobenzyl)-N-(1-methyl-1H-imidazol-4-yl)-1H-pyrazolo[3,4-d]pyrimidin-6-amine], the IC50 against JAK2 was at least 10000 nM; on JAK3, 100 to 1000 nM.
As to `Cn1cc(Nc2ncc3cnn(Cc4ccccc4OCc4ccccc4)c3n2)cn1` [Example 114, 1-(2-(Benzyloxy)benzyl)-N-(1-methyl-1H-pyrazol-4-yl)-1H-pyrazolo[3,4-d]pyrimidin-6-amine], the IC50 against JAK2 was at least 10000 nM; against JAK3, 100 to 1000 nM.
As for `Cc1nn(CC(F)F)cc1Nc1ncc2cnn(Cc3cc(F)ccc3F)c2n1` [Example 150, 1-(2,5-Difluorobenzyl)-N-(1-(2,2-difluoroethyl)-3-methyl-1H-pyrazol-4-yl)-1H-pyrazolo[3,4-d]pyrimidin-6-amine], the IC50 at JAK2 is 1000 to 10000 nM; against JAK3, under 100 nM.
For `Cn1cc(Nc2ncc3cnn(-c4cccc(S(N)(=O)=O)c4)c3n2)cn1` [Example 122, 3-(6-((1-Methyl-1H-pyrazol-4-yl)amino)-1H-pyrazolo[3,4-d]pyrimidin-1-yl)benzenesulfonamide], in that order: 1000 to 10000 nM and 100 to 1000 nM.
For `CN(C)c1cccc(Cn2ncc3cnc(Nc4cnn(C)c4)nc32)n1` [Example 183], in that order: at least 10000 nM and 100 to 1000 nM.
For `Cn1cc(Nc2ncc3cnn(Cc4cccc(Cl)c4F)c3n2)cn1` [Example 72, 1-(3-Chloro-2-fluorobenzyl)-N-(1-methyl-1H-pyrazol-4-yl)-1H-pyrazolo[3,4-d]pyrimidin-6-amine], in that order: 1000 to 10000 nM and under 100 nM.
Take `N#CCCCn1cc(Nc2ncc3cnn(Cc4ccccc4C#N)c3n2)cn1` [Example 20, 2-((6-(1-(3-Cyanopropyl)-1H-pyrazol-4-ylamino)-1H-pyrazolo[3,4-d]pyrimidin-1-yl)methyl)benzonitrile]: the IC50 against JAK2 was 1000 to 10000 nM; against JAK3, under 100 nM.
For `FC(F)Cn1cc(Nc2ncc3cnn(Cc4ccccc4)c3n2)cn1` [Example 118, 1-Benzyl-N-(1-(2,2-difluoroethyl)-1H-pyrazol-4-yl)-1H-pyrazolo[3,4-d]pyrimidin-6-amine], in that order: 1000 to 10000 nM and under 100 nM.
The matching figures for `Cn1cc(Nc2ncc3cnn(Cc4c(F)cccc4C(F)(F)F)c3n2)cn1` [Example 164, 1-(2-Fluoro-6-(trifluoromethyl)benzyl)-N-(1-methyl-1H-pyrazol-4-yl)-1H-pyrazolo[3,4-d]pyrimidin-6-amine]: 1000 to 10000 nM and under 100 nM.
For `Cc1cccc(Cn2ncc3cnc(Nc4cnn(C)c4)nc32)c1` [Example 83, N-(1-Methyl-1H-pyrazol-4-yl)-1-(3-methylbenzyl)-1H-pyrazolo[3,4-d]pyrimidin-6-amine], in that order: 1000 to 10000 nM and under 100 nM.
For `Fc1ccc(F)c(Cn2ncc3cnc(Nc4cnn(CC(F)F)c4)nc32)c1` [Example 129, 1-(2,5-Difluorobenzyl)-N-(1-(2,2-difluoroethyl)-1H-pyrazol-4-yl)-1H-pyrazolo[3,4-d]pyrimidin-6-amine], the IC50 against JAK2 is 100 to 1000 nM; at JAK3, under 100 nM.
Turning to `Cc1nc(-n2ncc3cnc(Nc4cnn(C)c4)nc32)ccc1NS(C)(=O)=O` [Example 55, N-(2-Methyl-6-(6-(1-methyl-1H-pyrazol-4-ylamino)-1H-pyrazolo[3,4-d]pyrimidin-1-yl)pyridin-3-yl)methanesulfonamide], the IC50 fell in the range of 1000 to 10000 nM against JAK2 and 100 to 1000 nM against JAK3.
For `CO[C@@H](C)COc1cccc(Cn2ncc3cnc(Nc4cnn(C)c4)nc32)c1` [Example 171, (S)-1-(3-(2-Methoxypropoxy)benzyl)-N-(1-methyl-1H-pyrazol-4-yl)-1H-pyrazolo[3,4-d]pyrimidin-6-amine], in that order: at least 10000 nM and under 100 nM.
For `Fc1cccc(Cn2ncc3cnc(Nc4cnn(CC(F)F)c4)nc32)c1F` [Example 155, 1-(2,3-Difluorobenzyl)-N-(1-(2,2-difluoroethyl)-1H-pyrazol-4-yl)-1H-pyrazolo[3,4-d]pyrimidin-6-amine], in that order: 1000 to 10000 nM and under 100 nM.
For the compound `Cn1cc(Nc2ncc3cnn(Cc4c(F)cccc4F)c3n2)cn1` [Example 29, 1-(2,6-Difluorobenzyl)-N-(1-methyl-1H-pyrazol-4-yl)-1H-pyrazolo[3,4-d]pyrimidin-6-amine], the IC50 against JAK2 was 1000 to 10000 nM; against JAK3, under 100 nM.
For `Cc1cccc(F)c1Cn1ncc2cnc(Nc3cnn(C)c3)nc21` [Example 117, 1-(2-Fluoro-6-methylbenzyl)-N-(1-methyl-1H-pyrazol-4-yl)-1H-pyrazolo[3,4-d]pyrimidin-6-amine], the IC50 on JAK2 was 1000 to 10000 nM; against JAK3, under 100 nM.
For `Fc1ccccc1Cn1ncc2cnc(Nc3cnn(CCN4CCCCC4)c3)nc21` [Example 143, 1-(2-Fluorobenzyl)-N-(1-(2-(piperidin-1-yl)ethyl)-1H-pyrazol-4-yl)-1H-pyrazolo[3,4-d]pyrimidin-6-amine], in that order: 1000 to 10000 nM and under 100 nM.
Regarding `Cn1cc(Nc2ncc3cnn(Cc4cccc5ccccc45)c3n2)cn1` [Example 220, N-(1-Methyl-1H-pyrazol-4-yl)-1-(naphthalen-1-ylmethyl)-1H-pyrazolo[3,4-d]pyrimidin-6-amine], the IC50 is 1000 to 10000 nM against JAK2 and 100 to 1000 nM on JAK3.
For `COc1nn(CC(F)(F)F)cc1Nc1ncc2cnn(Cc3ccccc3C#N)c2n1` [Example 38], in that order: at least 10000 nM and 100 to 1000 nM.

A word on the IC50: it is the point on the concentration scale where inhibition reaches its midpoint. Read a low IC50 as greater potency in that assay.

The values above are taken from patent US9242987B2, “Heterocyclyl pyrazolopyrimidine analogues as JAK inhibitors” (Cellzome Limited, priority 2009, dated 2016).
